SMILES strings stand for the structures.

The results in this text go back to the SangsterLogP compilation.

Test in the first series: not given
With `COCc1ccc(C#N)cc1`, the logP stood at 1.23.

Another series in a line: method code SF-AS, from Wang, W.; Wang, L.; Tian, L.; Zhang, Z.; Qiu, J. (1987). Partition coefficients of the intermediate of pyrethroid in n-octanol/water system. Huazhong Gongxueyuan Xuebao, 15(1)135-137.
The compound `C=CCOCc1ccccc1` yielded a logP of 2.41. Regarding `N#CCc1ccc(Cl)cc1`, the logP worked out at 2.47. `ClCc1ccc(Cl)cc1` gave a logP of 3.18. In turn, `Cc1ccc(CC#N)cc1` yielded a logP of 1.67.

As for `CCOCc1ccccc1`, the lipophilicity (logP) turned out to be 2.16. On the same count and under the same terms, for `COCc1ccccc1` the value was 1.67; for `COCc1ccc(COC)cc1`, 1.28. `COCc1ccc(CC#N)cc1` yielded a lipophilicity (logP) of 1.23. As to `CC(C)C(C#N)c1ccc(Cl)cc1` (stereo not given), the logP turned out to be 3.41.
